From US20040029953A1, “Use of neuropeptide-y antagonists in treatment of alcoholism” (priority 2000, published 2004)
Entries after “also recorded” stand apart in the source; their conditions may differ.

Experiments:
Long-Evans rats [1] = test: Body weight, food intake and water intake in the home cage 24 hours after PVN infusion; assay type: in vivo, rat
Experimental: FIG. 2 depicts the effects of NPY or NPY+D-NPY infused in the PVN on (A) body weight, (B) food intake, and (C) water intake measured in the home cage 24 hours after infusion. Drug doses were administered in random order. Data are plotted as Mean±SEM of 11 rats.
(§1) Microinjection procedure. When ethanol and water intake stabilized again, microinjections were conducted once per week. Unanesthetized rats were placed in plastic containers (15×30×15 cm deep) to reduce movement. Obturators were removed and sterile 33-gauge injectors were inserted bilaterally to a depth 1 mm beyond the end of the guide cannulae. Drug solutions were infused bilaterally in distilled water vehicle in a total volume of 1 μl (0.5 μl/side) over a 1-min period. The injectors were left in place for an additional 30-sec period to allow drug diffusion. Precise flow of the solutions was verified before and after each injection to ensure compound delivery. Self-administration sessions began immediately after microinjections. Sterile obturators were reinserted at the end of the behavioral sessions. When co-administered, D-NPY or BIBP 3226 was infused 15-min prior to NPY. Vehicle injections were also performed to control for local pressure or osmotic changes caused by infusions. During one month prior to drug testing, the animals were handled and placed in the plastic tubs to minimize the effects of procedural changes on subsequent drug effects. The data from these sessions were not used in the analysis. After completion of the microinjection protocol, the rats were sacrificed and their brains were removed for histological verification of injection sites.

Long-Evans rats [2] = test: Ethanol (10% v/v) vs. water self-administration after infusion in the PVN, sucrose-faded rats with long-term ethanol history; assay type: in vivo, rat
Description: The effectiveness of known NPY receptor antagonists and NPY Y1-selective or Y5selective receptor antagonists in reducing craving for alcohol and reducing self-administration of alcohol can be tested in experimental animal models. Briefly, Long-Evans rats are conditioned to the laboratory environment and trained to self-administer concurrent ethanol (10% v/v) vs. water using a sucrose-fading procedure (H. H. Samson, Alcohol Clin. Exp. Res., 1986, 10:436442) as described by Hodge et al. (Alcohol, 1993, 10:191-196). Stereotaxic surgery is performed to implant injector guide cannulae aimed at the PVN. Microinjections of test compounds are given, with and without concomitant injection of NPY, into the PVN of the conditioned rats, which are then immediately given the opportunity to self-administer either water or ethanol (10% v/v). The volume of ethanol and water consumed are measured. Ethanol intake is converted from milliliters consumed to gram/kilogram body weight. Relative ethanol intake (preference) is calculated as […] of ethanol consumed divided by total fluid intake (ethanol+water […]). Drug dose effects are analyzed by one-way repeated measures analysis of variance (ANOVA). Post-hoc comparisons between drug doses and vehicle control are conducted using a paired t-test or Dunnett's t-test where appropriate (SigmaStat, Jandel, San Rafael, Calif.).
Animals. Thirty-six male Long-Evans rats (Harlan, Indianapolis, Ind.) were housed individually in Plexiglas cages. Access to water was restricted during the first day of behavioral training, but was continuously available for the remainder of the experiment. Food was always available in the home cage. In experimental chambers, ethanol (10% v/v) and water were available concurrently during daily (M-F) sessions. The animal colony room was maintained on a 12L:12D cycle with the lights on at 06:30. Experimental sessions were run during the light portion of the cycle. All experimental procedures were conducted under institutional and NIH guidelines.
Apparatus. Experimental sessions were conducted in Plexiglas chambers (27×37×21 cm) located in sound-attenuating cubicles (MED Associates, model ENV 016M, Lafayette, Ind.). Chambers were equipped with exhaust fans that masked external noise. The right wall of each chamber contained two 50-ml drinking bottles. Drug solutions were administered bilaterally through stainless steel injectors (Plastics One, Roanoke, Va.), which were connected via plastic tubing to two 1.0 μl syringes (Hamilton, Reno, Nev.). Syringes were mounted on a micro-infusion pump (Harvard Apparatus, Model 22, Natick, Mass.) set to deliver 0.5 μl/min/syringes.
Self-administration procedures. After 2 weeks of adaptation to laboratory housing conditions, fluid access was restricted to 1-h per day (for 2 days only) and two groups of rats (n=12 per group) were trained to drink from the bottles in the experimental chambers by overnight access to sucrose (10% w/v) vs. water during one overnight session. Daily 1 hour sessions were then conducted with sucrose (10% w/v) vs. water available concurrently. The location (i.e., left or right side of the chamber) of the sucrose and water solutions was alternated daily. When sucrose and water intake patterns stabilized, the rats were trained to self-administer concurrent ethanol (10% v/v) vs. water using a sucrose-fading procedure (H. H. Samson, Alcohol Clin. Exp. Res., 1986, 10:436-442) as previously described (e.g., Hodge et al., 1993). Briefly, ethanol was gradually added to the sucrose solution and then sucrose was faded out of the solution until rats were self-administering 10% ethanol vs. water. During the 2-month sucrose-fading procedure, the location of the ethanol/sucrose solution and water were alternated daily.

Long-Evans rats [3] = test: Ethanol vs. water intake after NPY infusion in the PVN, control rats with no long-term history of ethanol self-administration; assay type: in vivo, rat; settings: for ETOH Intake / ETOH Preference (%) / water intake: mean±SEM
Description: Since NPY has potent effects on consummatory behavior, it is possible that NPY infusions in the PVN could alter ethanol intake via mechanisms that are unrelated to experience with the pharmacological effects of ethanol. […] Experimentally naive rats were allowed one week to adapt to the laboratory. They were then implanted with bilateral guide cannulae aimed at the PVN. Experimental sessions began one week after surgery to allow for recovery. During daily 60-min sessions, rats were placed in the self-administration chambers with concurrent ethanol (10% v/v) vs. water available. Baseline levels of ethanol and water intake were measured for one week. Microinjection procedures were then conducted.
as §1
Data analysis and statistics. Volume of ethanol and water consumed was measured to the nearest 0.5 milliliter at the end of each 1-h session. Ethanol intake was converted from mls consumed to g/kg body weight. Relative ethanol intake (preference) was calculated as mls of ethanol consumed divided by total fluid intake (ethanol+water mils). Drug dose effects were analyzed by one-way repeated measures analysis of variance (ANOVA). Post-hoc comparisons between drug doses and vehicle control were conducted using paired t-test or Dunnett's t-test where appropriate (SigmaStat, Jandel, San Rafael, Calif.).
Data values are presented as mean±SEM.

C57BL/6J mice = test: Operant ethanol-reinforced lever pressing (CONC FR1 FR1, 16-h sessions) after systemic administration; assay type: in vivo, mouse; settings: for alcohol-seeking behavior (lever presses for alcohol) during the peak period: 4th-5th hour of access, vs saline
Description: Another animal model suitable for testing the effectiveness of the NPY antagonist uses alcohol-reinforced lever pressing behavior as described in Olive et al. Eur. J. Neurosci. 2000 Vol 12, 4131-4140. This model is particularly useful for identifying NPY antagonists that prevent or delay alcohol seeking behavior or prevent or reduce the occurence of relapse drinking in recovering alcoholics.
Male C57BL/6J mice (N=8) were housed in standard Plexiglas cages (n=4/cage) with food (Harlan, Indianapolis, Ind.) and water always available. Mice were 20 weeks of age (body weight, 28-35 g) and drug naïve at the start of all testing. During operant self-administration training, food pellets (15 g per overnight session) were placed into the operant chambers and water was available under a fixed ratio-1 (FR-1) schedule of reinforcement.
Test sessions were conducted in 8 Plexiglas operant chambers (Med Associates, Lafayette, Ind.) measuring 15.9×14×12.7 cm with stainless steel grid floors. Each chamber was housed in a sound-attenuating cubicle equipped with a house fan that provided ventilation and helped mask external noise. The left and right wall of each operant chamber was equipped with one ultra-sensitive stainless steel response lever and a liquid delivery system. Liquid solutions (ethanol or water) were maintained in 60 ml syringes mounted on a programmable pump (PH-100, Med Associates), which delivered 0.01 ml per activation into a stainless steel cup located to the left of the associated response lever. Each chamber also contained a house light (illuminated between 16:00-18:00 hr and 06:00-08:00 hr), as well as a stimulus light located above each lever (activated each time the lever was pressed). The chambers were interfaced (Med Associates) to an IBM-compatible PC, which was programmed to record all lever presses and liquid deliveries.
Mice were trained to lever press using reinforcement (10% sucrose w/v) of successive approximations. After initial behavioral shaping sessions, mice were run during 16 hr overnight (16:00-08:00 hrs) training sessions. During these training sessions, both response levers were active on a concurrent fixed ratio one (CONC FR1 FR1) schedule with 10% sucrose vs. water presented as the reinforcer. The position of each solution (left or right) was fixed for each animal but counterbalanced between animals to control for side preference. After 4 days, mice were trained to orally self-administer ethanol (10% v/v) vs. water using a sucrose substitution procedure, which we have adapted for use in the mouse (Olive et al., 2000 Eur. J. Neurosci. 12:4131-4140). Briefly, ethanol (2, 4, 8, or 10% v/v) was incrementally added to the sucrose (10% w/v) solution with 4 days at each increasing concentration. Then, sucrose (10, 5, 2% w/v) was incrementally faded out of the ethanol containing solution with 4 days at each decreasing concentration. After sucrose substitution training, all mice reliably responded on the CONC FR1 FR1 schedule of reinforcement with ethanol (10% v/v) vs. water presented as the reinforcers.

[4] = D-NPY co-administered with NPY (10 fmol) in the PVN
[5] = NPY in the PVN, 24 hours after infusion, ethanol-experienced rats
[6] = NPY, sucrose-inexperienced animals
[7] = any dose of NPY tested, rats without long-term ethanol history

Molecule: [D-Tyr^27,36,D-Thr^32] Neuropeptide Y (27-36) [D-NPY]
- body weight in the home cage (Long-Evans rats [1]; D-NPY alone or in combination with NPY in the PVN): produced no effect on body weight
- ethanol intake (Long-Evans rats [2]; D-NPY alone infused in the PVN): partial, but significant, decrease in ethanol intake
- NPY-induced decrease in water intake during sessions (Long-Evans rats [2]; [4]): completely blocked the effects of NPY on ethanol and water intake; also recorded: significantly reversed NPY-induced decreases in water intake
- NPY-induced increase in ethanol intake (Long-Evans rats [2]; [4]): completely blocked the effects of NPY on ethanol and water intake
- NPY-induced increase in ethanol preference (Long-Evans rats [2]; D-NPY co-administered with NPY (10 fmol) in the PVN, P<0.09): did not significantly alter

Molecule: Neuropeptide Y [NPY]
- body weight in the home cage (Long-Evans rats [1]; [5]): no effect
- food consumption in the home cage (Long-Evans rats [1]; [5]): no effect
- water intake in the home cage (Long-Evans rats [1]; NPY in the PVN, 24 hours after infusion, ethanol-experienced rats, p<0.05): reduced water intake in the home cage; also recorded: small but significant reductions
- body weight in the home cage (Long-Evans rats [1]; [6]): no effect
- food intake in the home cage (Long-Evans rats [1]; [6]): no effect
- water intake in the home cage (Long-Evans rats [1]; [6]): no effect
- ethanol intake (Long-Evans rats [2]; NPY (10 fmol) in the PVN, BIBP 3226 group of 9 rats): significantly increased ethanol intake above control values
- water intake during experimental sessions (Long-Evans rats [2]; NPY infused in the PVN): decreased water intake in a dose-dependent manner; also recorded: significantly decreased water intake
- ethanol intake (Long-Evans rats [2]; NPY infused in the PVN, all doses, 1-hour session, vs vehicle control): increases alcohol self-administration; also recorded: significantly increased ethanol intake
- ethanol preference (Long-Evans rats [2]; NPY infused in the PVN, dose-dependent, 1-hour session): significantly increased ethanol preference
- ethanol as share of fluid consumption during daily sessions (Long-Evans rats [2]; two highest doses of NPY in the PVN): greater than 90%
- ETOH Intake (Long-Evans rats [3]; NPY 10.0 fmol in the PVN): 0.0330 ± 0.024 g/kg/h
- ETOH Preference (%) (Long-Evans rats [3]; NPY 10.0 fmol in the PVN): 20.0 ± 13.333%
- water intake (Long-Evans rats [3]; NPY 10.0 fmol in the PVN): 0 ± 0 mL/h
- ETOH Intake (Long-Evans rats [3]; NPY 100.0 fmol in the PVN): 0.0550 ± 0.03 g/kg/h
- ETOH Preference (%) (Long-Evans rats [3]; NPY 100.0 fmol in the PVN): 30 ± 15.275%
- water intake (Long-Evans rats [3]; NPY 100.0 fmol in the PVN): 0.3 ± 0.133 mL/h
- change in ethanol intake (Long-Evans rats [3]; [7]): no dose of NPY tested produced a change; also recorded: no effect on ethanol intake
- change in ethanol preference (Long-Evans rats [3]; [7]): no dose of NPY tested produced a change
- change in water intake (Long-Evans rats [3]; [7]): no dose of NPY tested produced a change

Molecule: CC1(C)CC(=O)C(C2C3=C(CC(C)(C)CC3=O)Oc3ccccc32)C(=O)C1 (centres unmarked) [L 152,804, 2-(3,3-dimethyl-1-oxo-4H-1H-xanthen-9-yl)-5,5-dimethylcyclohexane-1,3-dione]
- self-administration during the 13th hour of access (C57BL/6J mice; 60 mg/kg): compensatory increase in self-administration
- alcohol-seeking behavior (lever presses for alcohol) during the peak period (C57BL/6J mice; 60 mg/kg): significantly decreased alcohol-seeking behavior
- alcohol-seeking behavior (lever presses for alcohol) during the peak period (C57BL/6J mice; 60 mg/kg, listed as LI 52,804): blocked this peak in alcohol-seeking behavior
- latency to the first response (delay to first alcohol lever press) (C57BL/6J mice; dose-dependent, vs no injection and saline controls): significantly increased the latency to the first response; also recorded: dose dependently delayed the onset of responding
- response latency, statistical significance (C57BL/6J mice; highest dose): did not achieve significance
- water intake during 16-h sessions (C57BL/6J mice; systemic, 10, 30 and 60 mg/kg): no effect on water intake
- ethanol self-administration (C57BL/6J mice; the two low doses (10, 30 mg/kg)): did not significantly alter ethanol self-administration
